{"source": "patent US11628179B2", "about": "“Compounds for treating and preventing extracellular histone mediated pathologies” (priority 2017, dated 2023)", "key": {"[1]": {"test_system": "C57BI/6 mice", "assay": "EAE model of multiple sclerosis", "type": "in vivo, mouse", "conditions": "50 mg/kg i.p. daily day 0-9, 35 day window", "method": "EAE Model of Multiple Sclerosis. EAE was induced in 8-12 week old C57BI/6 mice by subcutaneous immunisation with 115 μg/mouse myelin oligodendrocyte glycoprotein (MOG35-55 genscript) in Complete Freund's Adjuvant (Sigma) on day 1. 300 ng/mouse Pertussis toxin (List Biological Laboratories) in PBS was injected intra peritoneal (i.p.) on days 0 and 2. 50 mg/kg mCBS in PBS or PBS alone (vehicle) was given i.p. daily for day 0-9. Mice were monitored daily for signs of disease and were scored on a scale of 0-5 based on physical manifestations of disease. Mice were scored as follows: 0, clinically normal; 1, flaccid tail and/or ataxia; 2, hind limb weakness; 3, hind limb paralysis; 4, hind and front limb paralysis; and 5, moribund."}, "[2]": {"test_system": "human platelets", "assay": "Histone-induced platelet aggregation", "type": "cell-based", "conditions": "compounds added prior to histones 150 μg/mL"}, "[3]": {"test_system": "Wistar rats", "assay": "Rat caecal ligation and puncture (CLP), moderate sepsis", "type": "in vivo", "method": "Male Wistar rats (n=8/group) underwent laparotomy, caecal ligation and puncture (CLP) to stimulate faecal peritonitis and subsequent sepsis, then treated with saline (Control CLP) or 50 mg/kg of mCBS at 0, 5 and 10 hr post-op via i.p. injection and monitored for 20 hr. Once rats reached a state of severe morbidity they were humanely euthanased at which point a death was recorded.\nRat caecal ligation and puncture (CLP) assay for sepsis. The CLP assay was performed in male Wistar rats as previously described (see Hubbard, W. J. et al. Cecal ligation and puncture. Shock 24 Suppl 1, 52-57 (2005).). Test compounds (50 mg kg^−1) dissolved in saline or an equivalent volume of saline only (Control cohort) were administered i.p. 5 min pre-CLP and 5, 10 and 15 h post-op until cessation of the experiment at 20 h. Sham-CLP rats underwent the same procedure, however, the caecum was not ligated or punctured and these rats received saline at the same times as above. At the conclusion of the experimental time period (20 h) or when morbidity required ethical euthanasia, the rats were anaesthetised and blood was collected via cardiac puncture into EDTA for subsequent analysis of liver (ALT) and kidney (creatinine) function by the Department of Pathology, The Canberra Hospital. The propensity for clots to form within the blood samples of the saline treated control CLP animals (despite the presence of EDTA) prevented successful analysis of plasma samples from all animals."}, "[4]": {"assay": "Pharmacokinetics, intravenous bolus 100 mg/kg (plasma and urine)", "type": "in vivo, rat", "method": "A total of nine blood samples were collected from each rat at time points ranging from pre-dose to 192 hours post-dose. Urine samples were also collected over the first 48 hours. The resulting blood samples were processed to plasma. The urine and plasma samples were subsequently analysed for the concentration of mCBS (free-base) using LC-MS/MS based methods."}, "[5]": {"test_system": "Human platelets in whole blood", "assay": "Histone-induced platelet degranulation (ATP release)", "type": "cell-based", "conditions": "compounds added prior to histones 400 μg/mL"}, "[6]": {"assay": "Pharmacokinetics, 5 hour intravenous infusion", "type": "in vivo, rat", "method": "The pharmacokinetics (PK) of mCBS were studied following intravenous administration as an infusion over a 5 hours period to male Sprague Dawley rats. In this study the pharmacokinetics of the mCBS compound were investigated following intravenous infusion. The compound was formulated using Hartman's solution and administered to a group of n=3 rats at the rate of 25.3 mg/kg/h (total dose: 126.5 mg/kg; Group 1) and to a second group of n=3 rats at the rate of 50.6 mg/kg/h (total dose: 253 mg/kg; Group 2).\nA total of six blood PK samples were collected from each rat at time points ranging from pre-dose to 5 hours after the start of the infusion. The resulting blood samples were processed to plasma, and subsequently analysed for the concentration of mCBS using an LC-MS/MS based method. Phoenix 64 WinNonlin® software was used to estimate area under the concentration versus time curve (AUC) values over the 0 to 5 h infusion interval. Values for concentration at steady state (Css) and clearance (Cl) were also estimated."}, "[7]": {"test_system": "Beagle dogs", "method": "This study was also conducted inter alia to determine the maximum tolerated dose (MTD) of the test item, mCBS, when administered by continuous (24 hours/day) intravenous infusion through a surgically-implanted catheter for 48 hours per dose level for up to 4 dose levels to Beagle dogs.\nmCBS dose formulations were administered to Beagle dogs by continuous (24 hours/day) intravenous infusion for 48 hours per dose level for up to 4 dose levels, as described in the Table 15 below.\nParameters monitored during this phase of the study included mortality, clinical observations, body weights, and food consumption. Serial blood samples were collected from each animal to confirm mCBS plasma levels at the following time points: 24 and 48 hours post start of infusion of each dose level. Blood samples were also collected from each animal for clinical pathology evaluations (hematology, coagulation, and clinical chemistry) on Day 1, prior to administration of the new dose level on Days 3, 5, and 7, and on Day 9."}, "[8]": {"test_system": "human microvascular endothelial cells (HMECs)"}, "[9]": {"test_system": "mice", "assay": "In-vivo histone toxicity assay, organ damage markers at 4 hr", "set-up": "species or system mouse", "conditions": "6.25, 25 and 100 mg/kg i.p. 10 min prior to histones 50 mg/kg i.v.; blood at 4 hr"}, "[10]": {"conditions": "IV bolus 100 mg/kg as sodium salt"}, "[11]": {"conditions": "mCBS 100 μg/mL added prior to histones 400 μg/mL, 60 min"}}, "note": "Where “and” joins values, the source holds several entries; their conditions need not be identical. Identical values can stand only once. Counter-ions that a name gives are not always drawn."}
{"compound": "CO[C@@H]1O[C@H](COS(=O)(=O)O)[C@@H](O[C@@H]2O[C@H](COS(=O)(=O)O)[C@@H](OS(=O)(=O)O)[C@H](OS(=O)(=O)O)[C@H]2OS(=O)(=O)O)[C@H](OS(=O)(=O)O)[C@H]1OS(=O)(=O)O", "note": "[mCBS, β-O-methyl cellobioside sulfate]", "values": [{"measurement": "protection from EAE development", "setting": "[1]", "value": "substantial protection"}, {"measurement": "histone-induced platelet aggregation", "setting": "[2]", "value": "significantly reduced"}, {"measurement": "survival rate", "setting": "[3]; 50 mg/kg i.p. at 0, 5 and 10 hr post-op, monitored 20 hr", "value": 100, "unit": "%"}, {"measurement": "circulating LDH levels", "setting": "[3]; 50 mg/kg i.p., Control CLP 1.1±0.2, p=0.03", "value": "0.6±0.1", "unit": "U/L×10^3"}, {"measurement": "ALT or creatinine levels between the groups", "setting": "[3]; mCBS vs Control CLP", "value": "No differences"}, {"measurement": "percent of total dose excreted in urine, mean (±SEM)", "setting": "[4]; 0-4 h post-dosing", "value": "52.0 (±5.0) %"}, {"measurement": "percent of total dose excreted in urine, mean (±SEM)", "setting": "[4]; 0-24 h post-dosing", "value": "65.0 (±7.0) %"}, {"measurement": "percent of total dose excreted in urine, mean (±SEM)", "setting": "[4]; 0-48 h post-dosing", "value": "69.2 (±10.8) %"}, {"measurement": "AUCinf", "setting": "[4]; [10]", "value": "135,000 ng·h/mL"}, {"measurement": "AUClast", "setting": "[4]; [10]", "value": "135,000 ng·h/mL"}, {"measurement": "distribution half-life", "setting": "[4]; [10]", "value": 0.65, "unit": "h"}, {"measurement": "mean residence time (MRT)", "setting": "[4]; [10]", "value": 1.43, "unit": "h"}, {"measurement": "terminal total body clearance (Cl)", "setting": "[4]; [10]", "value": 0.605, "unit": "L/h/kg"}, {"measurement": "volume of distribution (Vz)", "setting": "[4]; [10]", "value": 49.0, "unit": "L/kg"}, {"measurement": "concentration at time zero (C0)", "setting": "[4]; IV bolus 100 mg/kg as sodium salt (81.5 mg/kg free base), pooled mean plasma data, 6 rats", "value": "308,000 ng/mL"}, {"measurement": "apparent terminal elimination half-life (T½)", "setting": "[4]; IV bolus 100 mg/kg as sodium salt, 100 mg/kg", "value": "56.1 h and ~56 h"}, {"measurement": "histone-induced platelet degranulation (ATP release)", "setting": "[5]", "value": "significantly reduced"}, {"measurement": "Cl, mean (±SEM)", "setting": "[6]; Group 1, 25.3 mg/kg/h", "value": "0.601 (±0.081) l/h/kg"}, {"measurement": "Css, mean (±SEM)", "setting": "[6]; Group 1, 25.3 mg/kg/h", "value": "58,400 (±6,920) ng/ml"}, {"measurement": "AUC 0-5 h infusion interval, mean (±SEM)", "setting": "[6]; Group 1, IV infusion 25.3 mg/kg/h for 5 h", "value": "260,000 (±30,200) ng·h/mL"}, {"measurement": "Cl, mean (±SEM)", "setting": "[6]; Group 2, 50.6 mg/kg/h", "value": "0.571 (±0.025)"}, {"measurement": "Css, mean (±SEM)", "setting": "[6]; Group 2, 50.6 mg/kg/h", "value": "120,000 (±5,560) ng/ml"}, {"measurement": "AUC 0-5 h infusion interval, mean (±SEM)", "setting": "[6]; Group 2, IV infusion 50.6 mg/kg/h for 5 h", "value": "532,000 (±25,500) ng·h/mL"}, {"measurement": "time of infusion to reach steady state plasma level (Css)", "setting": "[6]; IV infusion", "value": 2, "unit": "h"}, {"measurement": "Css and AUC at 50 mg/kg/hr compared to 25 mg/kg/hr", "setting": "[6]; IV infusion 5 h", "value": 2, "unit": "fold"}, {"measurement": "APTT (coagulation test)", "setting": "[6]; rats treated with the higher dose", "value": "higher APTT score compared to the reference range"}, {"measurement": "steady-state plasma concentration (Css) at the highest dose level", "setting": "[7]; 2788 mg/kg/day", "value": "higher than 300 μg/mL"}, {"measurement": "maximum tolerated dose (MTD)", "setting": "[7]; continuous (24 hours/day) IV infusion for 48 hours, free base corrected dose", "value": 2788, "unit": "mg/kg/day"}, {"measurement": "dose-limiting toxicity (adverse clinical sign)", "setting": "[7]; stepwise administration up to 2788 mg/kg/day", "value": "No dose-limiting toxicity"}, {"measurement": "effect of increasing concentration on viable/dead cells", "setting": "[8]; histones 400 μg/mL, increasing concentrations of mCBS", "value": "an increase in viable cells (Calcein-AM uptake) and a reduction in dead cells (PI uptake)"}, {"measurement": "HMECs reverted from PI uptake to PI exclusion and calcein-AM uptake", "setting": "[8]; histones 400 μg/ml 60 min, then mCBS 100 μg/ml for 10 min", "value": "approximately 30%"}, {"measurement": "protection from histone-mediated injury", "setting": "[8]; mCBS 25 μg/mL + histones 400 μg/mL", "value": "reduced level of protection"}, {"measurement": "dead cells (PI uptake)", "setting": "[8]; [11]", "value": 20, "unit": "%"}, {"measurement": "viable cells (calcein-AM)", "setting": "[8]; [11]", "value": 74, "unit": "%"}, {"measurement": "protection from histone-induced organ damage (LDH, ALT, creatinine)", "setting": "[9]", "value": "protects animals from histone-mediated injury"}]}
